The target in test [1] is T1, Serine/threonine-protein kinase Nek1 (Homo sapiens) (UniProt Q96PY6).
T1 sequence (whole entry): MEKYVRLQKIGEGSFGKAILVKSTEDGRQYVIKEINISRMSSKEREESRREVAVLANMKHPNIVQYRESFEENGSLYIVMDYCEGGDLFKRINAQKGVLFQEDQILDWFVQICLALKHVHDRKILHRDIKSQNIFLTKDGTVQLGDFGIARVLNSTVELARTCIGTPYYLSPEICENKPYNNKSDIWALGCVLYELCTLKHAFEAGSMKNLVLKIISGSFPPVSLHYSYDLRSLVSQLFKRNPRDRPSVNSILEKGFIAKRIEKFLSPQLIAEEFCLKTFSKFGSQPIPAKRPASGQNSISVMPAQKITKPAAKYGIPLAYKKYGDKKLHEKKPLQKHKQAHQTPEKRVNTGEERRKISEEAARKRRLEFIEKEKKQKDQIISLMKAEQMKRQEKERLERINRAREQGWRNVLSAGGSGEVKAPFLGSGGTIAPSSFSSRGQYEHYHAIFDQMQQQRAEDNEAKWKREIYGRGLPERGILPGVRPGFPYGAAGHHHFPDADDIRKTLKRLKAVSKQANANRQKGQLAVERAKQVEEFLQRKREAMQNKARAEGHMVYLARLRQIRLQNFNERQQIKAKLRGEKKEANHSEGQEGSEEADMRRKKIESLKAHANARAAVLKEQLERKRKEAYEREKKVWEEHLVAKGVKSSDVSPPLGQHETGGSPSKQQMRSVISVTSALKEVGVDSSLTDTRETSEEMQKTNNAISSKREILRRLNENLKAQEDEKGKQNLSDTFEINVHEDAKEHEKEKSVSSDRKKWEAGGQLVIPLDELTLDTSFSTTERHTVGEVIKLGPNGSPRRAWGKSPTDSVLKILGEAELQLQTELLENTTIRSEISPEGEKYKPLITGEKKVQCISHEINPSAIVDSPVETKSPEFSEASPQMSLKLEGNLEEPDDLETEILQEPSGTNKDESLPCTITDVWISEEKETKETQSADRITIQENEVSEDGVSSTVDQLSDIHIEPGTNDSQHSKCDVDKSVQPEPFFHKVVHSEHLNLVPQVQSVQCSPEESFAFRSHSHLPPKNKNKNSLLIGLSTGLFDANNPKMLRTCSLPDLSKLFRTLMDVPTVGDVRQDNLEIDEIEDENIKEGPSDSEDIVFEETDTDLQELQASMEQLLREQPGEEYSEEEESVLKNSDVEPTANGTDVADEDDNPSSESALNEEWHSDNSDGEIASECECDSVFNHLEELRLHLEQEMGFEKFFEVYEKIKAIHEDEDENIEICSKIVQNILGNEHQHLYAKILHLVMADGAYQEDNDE
The test is described as follows: Inhibition of human recombinant NEK1 at 15 nM related to control ULK1.

For test [2], the target named is Serine/threonine-protein kinase PAK 3 (Homo sapiens) (UniProt O75914). Briefly: Inhibition of human recombinant PAK3 at 15 nM related to control ULK1.
Chain of Serine/threonine-protein kinase PAK 3 (Homo sapiens) (O75914 whole entry, looked up): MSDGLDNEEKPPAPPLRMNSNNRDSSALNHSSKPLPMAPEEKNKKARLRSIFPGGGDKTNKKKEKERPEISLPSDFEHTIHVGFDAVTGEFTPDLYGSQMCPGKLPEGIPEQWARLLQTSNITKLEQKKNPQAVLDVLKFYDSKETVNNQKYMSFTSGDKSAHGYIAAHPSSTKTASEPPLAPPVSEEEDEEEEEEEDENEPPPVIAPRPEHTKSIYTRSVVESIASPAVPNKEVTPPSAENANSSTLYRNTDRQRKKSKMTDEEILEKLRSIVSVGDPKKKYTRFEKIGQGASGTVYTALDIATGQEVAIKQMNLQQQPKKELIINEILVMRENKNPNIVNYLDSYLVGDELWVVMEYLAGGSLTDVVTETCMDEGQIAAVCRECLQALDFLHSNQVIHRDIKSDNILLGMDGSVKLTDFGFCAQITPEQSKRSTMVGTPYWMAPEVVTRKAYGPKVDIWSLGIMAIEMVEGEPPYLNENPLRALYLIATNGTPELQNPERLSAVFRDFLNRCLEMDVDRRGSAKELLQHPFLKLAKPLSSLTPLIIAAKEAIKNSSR
Test [3] deals with Mitogen-activated protein kinase 8 (Homo sapiens) (UniProt P45983). The test is described as follows: Inhibition of human recombinant JNK1 at 40 nM related to control ULK1.
Chain of Mitogen-activated protein kinase 8 (Homo sapiens) (P45983 whole entry): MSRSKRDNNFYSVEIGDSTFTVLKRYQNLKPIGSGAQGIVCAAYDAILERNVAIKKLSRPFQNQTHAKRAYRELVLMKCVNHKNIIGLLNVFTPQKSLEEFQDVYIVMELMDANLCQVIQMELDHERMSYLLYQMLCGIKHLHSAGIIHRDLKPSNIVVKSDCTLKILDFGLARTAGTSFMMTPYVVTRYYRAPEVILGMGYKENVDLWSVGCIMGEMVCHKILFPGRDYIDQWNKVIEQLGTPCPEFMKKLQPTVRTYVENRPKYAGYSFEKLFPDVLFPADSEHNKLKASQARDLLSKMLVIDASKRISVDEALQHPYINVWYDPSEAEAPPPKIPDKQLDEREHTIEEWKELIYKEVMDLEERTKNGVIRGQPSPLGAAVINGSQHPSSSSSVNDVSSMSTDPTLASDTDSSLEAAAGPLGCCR
Test [4] deals with T2, Calcium/calmodulin-dependent protein kinase type IV (Homo sapiens) (UniProt Q16566).
T2 sequence (whole entry): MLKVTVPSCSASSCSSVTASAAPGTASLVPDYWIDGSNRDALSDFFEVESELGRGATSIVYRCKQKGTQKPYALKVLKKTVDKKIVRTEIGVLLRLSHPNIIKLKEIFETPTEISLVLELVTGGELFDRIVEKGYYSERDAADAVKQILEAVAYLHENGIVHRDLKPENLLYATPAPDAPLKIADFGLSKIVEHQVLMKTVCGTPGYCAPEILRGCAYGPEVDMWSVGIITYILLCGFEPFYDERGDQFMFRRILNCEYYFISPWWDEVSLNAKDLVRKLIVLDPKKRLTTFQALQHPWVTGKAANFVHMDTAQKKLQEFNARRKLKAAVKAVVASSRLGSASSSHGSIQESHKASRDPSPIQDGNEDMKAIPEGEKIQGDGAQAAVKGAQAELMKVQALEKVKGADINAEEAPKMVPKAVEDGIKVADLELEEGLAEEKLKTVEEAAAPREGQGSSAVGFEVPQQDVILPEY
Briefly: Inhibition of human recombinant CaMK4 at 500 nM in presence of ATP by radiometric assay relative to control.

In test [5] the target is T3, Serine/threonine-protein kinase DCLK2 (Homo sapiens) (UniProt Q8N568).
T3 sequence (whole entry): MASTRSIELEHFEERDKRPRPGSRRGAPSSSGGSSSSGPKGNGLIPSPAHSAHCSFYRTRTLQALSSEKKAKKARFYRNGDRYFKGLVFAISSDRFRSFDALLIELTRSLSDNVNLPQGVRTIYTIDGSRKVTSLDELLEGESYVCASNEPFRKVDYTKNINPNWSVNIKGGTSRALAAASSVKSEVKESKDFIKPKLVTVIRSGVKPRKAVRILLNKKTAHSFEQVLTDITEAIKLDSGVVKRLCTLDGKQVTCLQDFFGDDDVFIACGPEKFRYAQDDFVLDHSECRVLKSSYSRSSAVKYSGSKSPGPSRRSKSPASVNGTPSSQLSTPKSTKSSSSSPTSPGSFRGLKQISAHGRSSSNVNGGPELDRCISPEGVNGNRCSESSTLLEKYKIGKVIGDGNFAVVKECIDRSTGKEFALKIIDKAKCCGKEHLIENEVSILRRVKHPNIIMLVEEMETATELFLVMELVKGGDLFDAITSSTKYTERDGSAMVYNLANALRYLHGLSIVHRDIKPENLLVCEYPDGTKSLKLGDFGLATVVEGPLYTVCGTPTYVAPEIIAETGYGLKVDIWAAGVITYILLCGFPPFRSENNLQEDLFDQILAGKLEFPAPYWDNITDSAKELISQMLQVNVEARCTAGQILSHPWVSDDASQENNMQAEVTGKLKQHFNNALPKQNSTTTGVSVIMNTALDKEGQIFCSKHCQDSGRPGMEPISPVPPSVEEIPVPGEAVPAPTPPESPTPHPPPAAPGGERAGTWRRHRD
The test is described as follows: Inhibition of human recombinant DCAMKL2 at 500 nM in presence of ATP by radiometric assay relative to control.

The target in test [6] is Serine/threonine-protein kinase Nek6 (Homo sapiens) (UniProt Q9HC98). Briefly: Inhibition of human recombinant NEK6 at 500 nM in presence of ATP by radiometric assay relative to control.
Chain of Serine/threonine-protein kinase Nek6 (Homo sapiens) (Q9HC98 whole entry): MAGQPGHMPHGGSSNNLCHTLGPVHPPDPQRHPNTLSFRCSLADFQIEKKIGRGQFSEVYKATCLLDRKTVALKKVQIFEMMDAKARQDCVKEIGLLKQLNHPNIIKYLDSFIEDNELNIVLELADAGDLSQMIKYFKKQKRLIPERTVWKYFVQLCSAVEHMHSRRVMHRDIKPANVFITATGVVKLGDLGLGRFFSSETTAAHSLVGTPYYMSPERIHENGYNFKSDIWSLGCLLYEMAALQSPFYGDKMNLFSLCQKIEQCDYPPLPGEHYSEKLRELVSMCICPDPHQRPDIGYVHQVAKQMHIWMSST
Test [7] deals with Protein-tyrosine kinase 6 (Homo sapiens) (UniProt Q13882). Briefly: Inhibition of human recombinant BRK at 500 nM related to control ULK1.
Chain of Protein-tyrosine kinase 6 (Homo sapiens) (Q13882 whole entry, looked up): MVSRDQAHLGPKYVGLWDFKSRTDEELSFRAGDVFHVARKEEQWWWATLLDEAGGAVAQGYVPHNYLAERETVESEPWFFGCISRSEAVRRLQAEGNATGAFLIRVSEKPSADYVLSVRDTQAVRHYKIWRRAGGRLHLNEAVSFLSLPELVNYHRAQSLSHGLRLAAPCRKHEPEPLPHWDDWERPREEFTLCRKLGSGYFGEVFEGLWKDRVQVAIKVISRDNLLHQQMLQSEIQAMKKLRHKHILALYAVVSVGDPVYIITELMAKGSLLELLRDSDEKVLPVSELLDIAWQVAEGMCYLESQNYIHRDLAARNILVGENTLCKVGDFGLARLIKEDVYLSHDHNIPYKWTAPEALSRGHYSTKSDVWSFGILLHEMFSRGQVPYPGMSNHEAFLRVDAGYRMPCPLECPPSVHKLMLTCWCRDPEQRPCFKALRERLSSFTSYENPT
Test [8] deals with Insulin receptor (Homo sapiens) (UniProt P06213). The test is described as follows: Inhibition of human recombinant INSR at 500 nM related to control ULK1.
Chain of Insulin receptor (Homo sapiens) (P06213 28-758 limits assumed): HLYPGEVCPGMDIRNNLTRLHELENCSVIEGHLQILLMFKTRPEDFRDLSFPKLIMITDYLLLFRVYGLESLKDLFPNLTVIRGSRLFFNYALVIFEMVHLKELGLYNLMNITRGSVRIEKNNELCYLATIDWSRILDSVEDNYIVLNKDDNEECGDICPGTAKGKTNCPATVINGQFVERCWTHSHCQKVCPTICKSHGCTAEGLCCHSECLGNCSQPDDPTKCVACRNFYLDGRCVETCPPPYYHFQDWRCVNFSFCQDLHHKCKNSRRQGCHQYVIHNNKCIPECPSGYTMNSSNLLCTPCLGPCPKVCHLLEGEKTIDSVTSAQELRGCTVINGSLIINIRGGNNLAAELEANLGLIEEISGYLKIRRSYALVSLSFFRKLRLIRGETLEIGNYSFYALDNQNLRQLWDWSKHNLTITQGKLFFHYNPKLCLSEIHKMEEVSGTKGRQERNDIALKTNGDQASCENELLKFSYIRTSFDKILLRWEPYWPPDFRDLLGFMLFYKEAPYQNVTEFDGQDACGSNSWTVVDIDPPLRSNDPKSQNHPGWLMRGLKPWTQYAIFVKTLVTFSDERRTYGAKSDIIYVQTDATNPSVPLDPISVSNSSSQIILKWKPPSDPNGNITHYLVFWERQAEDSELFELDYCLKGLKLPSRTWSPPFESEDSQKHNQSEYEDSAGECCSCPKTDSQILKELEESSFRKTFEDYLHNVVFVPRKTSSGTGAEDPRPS
Chain of Insulin receptor (Homo sapiens) (P06213 763-1382 limits assumed): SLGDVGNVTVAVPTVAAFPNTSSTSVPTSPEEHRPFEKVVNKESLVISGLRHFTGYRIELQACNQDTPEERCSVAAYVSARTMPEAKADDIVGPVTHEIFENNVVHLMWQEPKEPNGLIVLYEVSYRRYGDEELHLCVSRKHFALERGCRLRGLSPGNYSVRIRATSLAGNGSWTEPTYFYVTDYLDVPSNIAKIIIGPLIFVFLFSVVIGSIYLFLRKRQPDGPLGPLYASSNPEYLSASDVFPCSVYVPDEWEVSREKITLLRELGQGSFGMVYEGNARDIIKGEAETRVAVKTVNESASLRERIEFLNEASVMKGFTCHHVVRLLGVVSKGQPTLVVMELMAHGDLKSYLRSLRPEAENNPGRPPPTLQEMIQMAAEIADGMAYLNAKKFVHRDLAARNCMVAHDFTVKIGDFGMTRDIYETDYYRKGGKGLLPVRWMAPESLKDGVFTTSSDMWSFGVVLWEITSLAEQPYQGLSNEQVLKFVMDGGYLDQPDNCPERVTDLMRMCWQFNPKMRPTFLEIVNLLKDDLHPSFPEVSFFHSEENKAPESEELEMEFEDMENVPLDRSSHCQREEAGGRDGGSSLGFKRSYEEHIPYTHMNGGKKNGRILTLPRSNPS
Test [9] deals with Ribosomal protein S6 kinase alpha-6 (Homo sapiens) (UniProt Q9UK32). The test is described as follows: Inhibition of human recombinant RSK4 at 500 nM related to control ULK1.
Chain of Ribosomal protein S6 kinase alpha-6 (Homo sapiens) (Q9UK32 whole entry): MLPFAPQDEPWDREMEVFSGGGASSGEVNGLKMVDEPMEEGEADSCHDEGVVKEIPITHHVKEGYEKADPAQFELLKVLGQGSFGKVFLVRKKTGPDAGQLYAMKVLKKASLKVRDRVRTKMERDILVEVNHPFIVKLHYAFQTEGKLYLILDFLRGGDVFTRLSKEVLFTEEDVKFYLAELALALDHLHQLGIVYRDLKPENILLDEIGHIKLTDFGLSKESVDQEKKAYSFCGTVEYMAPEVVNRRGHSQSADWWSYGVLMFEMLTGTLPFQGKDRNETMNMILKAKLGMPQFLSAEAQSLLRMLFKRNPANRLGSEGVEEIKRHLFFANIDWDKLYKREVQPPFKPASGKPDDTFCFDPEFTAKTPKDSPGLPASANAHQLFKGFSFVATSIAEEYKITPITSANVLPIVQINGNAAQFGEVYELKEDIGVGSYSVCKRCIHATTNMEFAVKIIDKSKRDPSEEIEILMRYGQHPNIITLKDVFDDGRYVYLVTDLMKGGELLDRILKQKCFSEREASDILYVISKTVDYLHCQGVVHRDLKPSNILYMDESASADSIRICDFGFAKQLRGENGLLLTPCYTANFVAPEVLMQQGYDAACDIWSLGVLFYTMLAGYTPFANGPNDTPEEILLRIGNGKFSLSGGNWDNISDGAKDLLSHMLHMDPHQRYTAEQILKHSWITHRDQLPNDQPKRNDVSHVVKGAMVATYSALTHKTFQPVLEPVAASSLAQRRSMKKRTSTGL

Our source for the fold change (FC) and inhibition values is ChEMBL document CHEMBL5653631, “A Potent and Selective ULK1 Inhibitor Suppresses Autophagy and Sensitizes Cancer Cells to Nutrient Stress” (iScience, 2018).

`CC(C)[C@H](NC(=O)c1cc(-c2cnn3cc(-c4ccc(OCCN5CCCCC5)cc4)cnc23)cs1)C(F)(F)F`: the values for the fold change (FC) in [1] and in [2] were 0.03 and 0.05, respectively.
In the case of `O=C(N[C@@H](C1CC1)C(F)(F)F)c1cc(-c2cnn3cc(-c4ccc(F)cc4)cnc23)cs1`, the fold change (FC) in [3] amounted to 0.
As for `CNC(=O)c1ccccc1Oc1nc(Nc2cc(OC)c(OC)c(OC)c2)ncc1Br`, the inhibition in [4], in test [5] and in [6] was 0% each time. The fold change (FC) was 0.03 in [7], 0 in test [8] and 0.45 in [9].
